Data set [1] relates to mice. Conditions: cited from earlier work.
Data set [2] deals with mice. To be noted: intraperitoneal administration; cited from earlier work.
Data set [3] is described as follows: Acute toxicity in mice with intraperitoneal administration (compound 1). Conditions: both sexes, CD-1 (ICR), mouse, in vivo, ip, printed 'in rats', study in CD-1 mice. On the procedure:
The study was performed on mice of the CD-1 (ICR) line (6-8 weeks, weight not less than 18 g) of both sexes. A single intraperitoneal injection of compound 1 was used at doses of 1000 mg/kg and 2000 mg/kg in a volume of 1 ml per 40 g of mouse body mass using an insulin syringe. The volume of administration was calculated individually for each animal, based on the body mass recorded immediately before the introduction of the substance.
To prepare a dose of 2000 mg/kg for administration to mice, a portion of 800 mg of compound 1 in a polystyrene boat on a Vibra scale (Shinko Denshi, Japan) was weighed, transferred to a volumetric flask of accuracy class A per 10 ml of volume, dissolved in physiological saline and adjusted to the mark. The solution was filtered with 0.22 μm syringe nozzles (Jet Biofil). […]
(§1) Animals were clinically examined individually after administration for 30 minutes, then at least once per hour for 4 hours, then daily once a day for 14 days. Body mass was recorded immediately before the administration of the preparation to calculate the volume of administration, then once every two days.

For data set [4], the system named is penicillin rat epilepsy model (high-amplitude electric discharges, HAED). Description: Penicillin model of epilepsy: effect on the electrical activity of the brain. It counts as in vivo. Here is the method:
Experiments were carried out on male Wistar rats with a body weight of 180-250 g. Under isoflurane anesthesia (1.5%), surgical preparation for the experiment is performed. Urethane ([…]) is used for anesthesia during the experiment. Next, the animal is fixed in a stereotactic installation. 2×2 mm holes are drilled in the skulls of animals over symmetrical areas of the sensorimotor cortex of the brain and a 16-channel silicon-based probe (Neuronexus) is installed with a step of 100 μm between the recording electrodes to divert electrical activity from these areas. A silver chloride electrode, which serves as a combined ground electrode and a reference electrode, is introduced into the cerebellum or the visual cortex to a depth of 2-3 mm. To create a focus of epileptic activity in parallel to the somatosensory zones, 2×2 mm holes are drilled in the area of the visual cortex, into which 10 μl of a solution of sodium salt of benzylpenicillin are applied at a concentration of 40,000 IU/ml. […] The amplitude-frequency characteristics of epileptiform activity are evaluated. […] For statistical processing of experimental data, statistical programs Origin 8.5 and IBM SPSS Statistics are used. The significance of differences between populations is evaluated by the Mann-Whitney U-test. […] Their presence, frequency and amplitude are characteristic indicators of brain epileptic activity.

Data set [5] in a line: Acute toxicity in mice with oral administration (compound 1). Conditions: female, CD-1 (ICR), mouse, in vivo, 5000 mg/kg, printed 'in rats', study in CD-1 mice. On the procedure:
The study was performed on mice of the CD-1 (ICR) line (6-8 weeks, weight not less than 18 g, females). Two-fold intragastric (oral) administration of compound 1 in a volume of not more than 0.5 ml/30 g of body weight of the mouse using a gastric tube was used.
The introduction was carried out to animals deprived of food (for a period of not less than 8 hours) with free access to water. The volume of administration was calculated individually for each animal, based on the body mass recorded immediately before the introduction of the substance. Access to water and feed was renewed one hour after administration.
To prepare a dose of 5000 mg/kg for administration to mice, a portion of 1.5 g of compound 1 in a polystyrene boat on a Vibra scale (Shinko Denshi, Japan) was weighed, transferred to a volumetric flask of accuracy class A per 10 ml of volume, dissolved in distilled water and adjusted to the mark. Due to the insufficient solubility of compound 1, another 10 ml of distilled water is added to the resulting volume of the solution.
as §1

Data set [6] relates to corazol rat epilepsy model (convulsions caused by corazol). Description: Corazol model of epilepsy: development of seizures. It counts as in vivo. To be noted: rats. On the procedure: Experiments were carried out on male Wistar rats with a body weight of 180-250 g.
Corazol at a dose of 80 mg/kg is administered subcutaneously in the cervical area of the back.
The intensity of the development of a convulsive seizure was studied on a 6-point scale: • 0—lack of convulsive activity; • 1—hyperkinesia; • 2—trembling, twitching, excessive grooming, stereotypical movements; • 3—clonic convulsions of the front legs with lifting on the hind legs; • 4—pronounced tonic-clonic convulsions, the fall of the animal to the side, the presence of a phase of tonic extensia; • 5—repeated tonic-clonic convulsions, loss of posture; • 6—complete tonic attack with apnea, death of the animal.
To study the effect of the claimed compound 1 on the development of convulsions caused by corazol, compound 1 is dissolved in physiological saline and administered as follows: • at doses of 25 mg/kg, 100 mg/kg intraperitoneally (ip) 30 minutes before the induction of convulsions with corazol; • at doses of 100 mg/kg, 200 mg/kg, 250 mg/kg intragastrically 1 hour before the induction of convulsions with corazol.
The development of convulsive disorder is assessed by the following indicators: • time before the onset of seizures (min); • duration of seizures (sec.); • intensity of seizures on a 6-point scale; • number of animals with repeated convulsions; • number of dead animals in the group.
For statistical processing of experimental data, statistical programs Origin 8.5 and IBM SPSS Statistics are used.
The significance of differences between populations is evaluated by the Mann-Whitney U-test.

Data set [7] has as its system mice. To be noted: intravenous injection; cited from earlier work.
For data set [8], the system named is rats. To be noted: intravenous injection; cited from earlier work.
Data set [9] relates to rats. Conditions: oral administration; cited from earlier work.

“Also recorded” adds a separate entry of the source. Where two headings read alike, the source gives them in different places.

Regarding `NC(=O)N1c2ccccc2C=Cc2ccccc21` [carbamazepine], the LD50 in data set [1] (mice, oral administration) is on record as 529 mg/kg; in data set [2], 114 mg/kg.
In the case of `Cc1nc(CS(=O)(=O)O)c(CO)c(CO)c1O` [compound 1, (5-hydroxy-3,4-bis (hydroxymethyl)-6-methylpyridin-2-yl) methanesulfonic acid], the LD50 at 14 days in [3] was above 2000 mg/kg; in data set [5], above 5000 mg/kg. In addition, in [4] (compound 1 25-100 mg/kg against sodium valproate 600 mg/kg, ip, penicillin model), the “antiepileptic effect compared with sodium valproate” value is given as 6-24 times. In addition, in [4] (compound 1 at 25, 50, 100 mg/kg ip, given 30 min after penicillin, 60 minutes after administration, rats), the “suppression of HAED (epileptic electrical activity of the brain)” value is listed as “completely suppressing HAED; also recorded: completely suppresses the epileptic electrical activity of the brain”. The “amplitude and frequency of HAED” value in data set [4] (compound 1 at 25, 50, 100 mg/kg ip, rats, penicillin model) was “decrease in the amplitude and frequency of HAED”. Further, the “prevention / reduction of development of a seizure” value in data set [6] (250 mg/kg oral administration, corazol model) is “best results in reducing the development of a seizure; also recorded: complete prevention of seizures in some cases”. In addition, in data set [6] (25 and 100 mg/kg intraperitoneally and 100 and 200 mg/kg orally, corazol model), the “intensity and duration of seizures” value is “decrease in the intensity and duration of seizures”. In [6] (100 and 200 mg/kg oral, corazol model), the “effect on development of a seizure relative to 250 mg/kg oral” value is listed as “slightly less pronounced”. The deaths entry in [6] (all dosages, corazol model) was “completely prevents deaths”. Also, the “likelihood of recurrence of seizures” value in data set [6] (all dosages, corazol model) is “greatly reduces the likelihood of recurrence of seizures”. Besides, the “duration and intensity of seizures” value in data set [6] (corazol 80 mg/kg sc, oral and intravenous (so in the source) ways of administration, all doses) is “dose-dependent decrease in the duration and intensity of seizures”.
In the case of `CCC1(C)CC(=O)NC1=O` (stereo not drawn) [ethosuximide], the LD50 in [1] (mice, oral administration) is listed as 1530 mg/kg.
As for `NCC1(CC(=O)O)CCCCC1` [gabapentinum], the LD50 was above 5000 mg/kg in data set [1] (mice, oral administration); 1000 to 2000 mg/kg in [7]; above 300 mg/kg in data set [8]; above 5000 mg/kg in data set [9].
On to `Nc1nnc(-c2cccc(Cl)c2Cl)c(N)n1` [lamotrigine], for which the LD50 in data set [1] (mouse, in vivo, po) was 269 mg/kg.
`CC[C@@H](C(N)=O)N1CCCC1=O` [levetiracetam]: the LD50 in data set [1] (mice, oral administration) is reported as above 5000 mg/kg.
For `CCC1(c2ccccc2)C(=O)NC(=O)NC1=O` [phenobarbital], in [9], the LD50 is 163 mg/kg.
On to `O=C1N=C([O-])NC1(c1ccccc1)c1ccccc1.[Na+]` [sodium phenytoin], for which the LD50 in data set [1] (mice, oral administration) is on record as 165 mg/kg.
`CCCC(CCC)C(=O)[O-].[Na+]` [sodium valproate]: the LD50 in data set [1] (mice, oral administration) is recorded as 977 mg/kg; in data set [2] it was 470 mg/kg.
On to `CC1(C)O[C@@H]2[C@@H](CO[C@@]3(COS(N)(=O)=O)OC(C)(C)O[C@@H]23)O1` [topiramate], for which, in [9], the LD50 was 3570 mg/kg.
`NS(=O)(=O)Cc1noc2ccccc12` [zonisamide]: the LD50 in data set [1] (mice, oral administration) is given as 1829 mg/kg; in data set [2], 699 mg/kg.

The record behind these values is patent US10844018B2, “Pyridoxine derivative for treatment of epilepsy” (AO “TATKHIMFARMPREPARATY”, priority 2017, dated 2020).
